Experimental data as given in patent US20260232578A1, “COMPOSITIONS AND METHODS FOR TRANSMUCOSAL ABSORPTION” (Tonix Pharma Limited, priority 2012, published 2026).
“And” between values parts separate entries of the source, which are not always exact repeats. Equal entries are not always repeated. Where two headings read alike, the source gives them in different places.

Experiments:
[1] = target: T1, 5-HT2A (Homo sapiens, UniProt P28223); test: biochemical; type: binding; conditions: for Ki: 5-HT2A
T1 construct: expressed in transfected cells
T1 sequence (P28223 whole entry): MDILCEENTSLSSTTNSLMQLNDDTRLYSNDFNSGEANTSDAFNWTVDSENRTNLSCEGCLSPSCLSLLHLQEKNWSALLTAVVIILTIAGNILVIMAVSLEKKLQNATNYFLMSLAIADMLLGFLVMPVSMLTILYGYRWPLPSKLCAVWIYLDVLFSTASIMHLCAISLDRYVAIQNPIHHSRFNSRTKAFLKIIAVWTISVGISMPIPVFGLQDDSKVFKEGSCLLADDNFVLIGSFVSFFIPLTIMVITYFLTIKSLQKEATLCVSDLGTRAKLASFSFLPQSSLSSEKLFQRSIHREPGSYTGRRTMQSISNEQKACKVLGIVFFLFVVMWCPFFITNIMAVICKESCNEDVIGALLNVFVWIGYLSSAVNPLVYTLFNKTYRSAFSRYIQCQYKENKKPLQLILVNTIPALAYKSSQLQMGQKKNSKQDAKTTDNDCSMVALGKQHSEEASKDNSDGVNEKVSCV

[2] = target: T2, 5-HT2C receptor (Homo sapiens, UniProt P28335); test: Equilibrium receptor binding, recombinant human receptor
T2 construct: expressed in transfected cells
T2 sequence (P28335 33-458): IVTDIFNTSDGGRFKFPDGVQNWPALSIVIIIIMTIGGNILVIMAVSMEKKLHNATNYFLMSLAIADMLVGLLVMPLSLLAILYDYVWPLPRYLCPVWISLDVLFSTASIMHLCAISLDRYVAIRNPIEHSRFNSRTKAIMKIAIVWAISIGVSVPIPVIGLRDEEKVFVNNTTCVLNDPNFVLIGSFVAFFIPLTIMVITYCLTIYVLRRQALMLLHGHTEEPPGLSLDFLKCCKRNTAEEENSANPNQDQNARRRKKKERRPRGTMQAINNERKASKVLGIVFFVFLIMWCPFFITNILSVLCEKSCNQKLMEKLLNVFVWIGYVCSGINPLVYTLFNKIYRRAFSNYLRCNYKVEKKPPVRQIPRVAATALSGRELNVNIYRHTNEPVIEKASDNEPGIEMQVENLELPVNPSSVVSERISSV

[3] = target: T3, D3 (Homo sapiens, UniProt P35462); test: as above
T3 construct: expressed in transfected cells
T3 sequence (P35462 whole entry): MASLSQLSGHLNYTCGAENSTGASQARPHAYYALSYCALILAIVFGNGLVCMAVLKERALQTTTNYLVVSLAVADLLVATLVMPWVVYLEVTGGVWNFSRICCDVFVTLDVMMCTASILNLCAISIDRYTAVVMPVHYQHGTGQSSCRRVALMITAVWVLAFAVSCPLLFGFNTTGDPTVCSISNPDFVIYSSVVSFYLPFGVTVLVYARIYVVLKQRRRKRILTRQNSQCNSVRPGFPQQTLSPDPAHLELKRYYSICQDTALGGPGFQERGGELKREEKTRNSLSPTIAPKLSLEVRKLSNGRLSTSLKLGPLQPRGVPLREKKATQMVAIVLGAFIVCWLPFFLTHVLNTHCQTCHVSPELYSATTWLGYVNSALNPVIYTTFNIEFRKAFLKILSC

[4] = target: T4, 5-HT7 (Homo sapiens, UniProt P34969); test: as above
T4 construct: expressed in transfected cells
T4 sequence (P34969 whole entry): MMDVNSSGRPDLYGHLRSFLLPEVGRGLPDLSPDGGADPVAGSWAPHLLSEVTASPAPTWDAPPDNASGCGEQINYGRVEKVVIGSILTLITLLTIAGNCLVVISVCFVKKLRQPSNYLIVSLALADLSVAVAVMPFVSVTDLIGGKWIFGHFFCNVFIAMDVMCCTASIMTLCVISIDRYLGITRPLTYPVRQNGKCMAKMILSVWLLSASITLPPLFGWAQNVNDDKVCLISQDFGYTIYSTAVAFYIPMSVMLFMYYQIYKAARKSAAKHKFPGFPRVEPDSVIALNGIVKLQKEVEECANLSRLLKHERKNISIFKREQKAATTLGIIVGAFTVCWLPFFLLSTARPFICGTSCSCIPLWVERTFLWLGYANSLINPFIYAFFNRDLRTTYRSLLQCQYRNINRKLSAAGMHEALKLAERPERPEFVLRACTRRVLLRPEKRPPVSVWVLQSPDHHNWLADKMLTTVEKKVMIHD

[5] = target: T5, 5-HT2B (Homo sapiens, UniProt P41595); test: as above
T5 construct: expressed in transfected cells
T5 sequence (P41595 whole entry): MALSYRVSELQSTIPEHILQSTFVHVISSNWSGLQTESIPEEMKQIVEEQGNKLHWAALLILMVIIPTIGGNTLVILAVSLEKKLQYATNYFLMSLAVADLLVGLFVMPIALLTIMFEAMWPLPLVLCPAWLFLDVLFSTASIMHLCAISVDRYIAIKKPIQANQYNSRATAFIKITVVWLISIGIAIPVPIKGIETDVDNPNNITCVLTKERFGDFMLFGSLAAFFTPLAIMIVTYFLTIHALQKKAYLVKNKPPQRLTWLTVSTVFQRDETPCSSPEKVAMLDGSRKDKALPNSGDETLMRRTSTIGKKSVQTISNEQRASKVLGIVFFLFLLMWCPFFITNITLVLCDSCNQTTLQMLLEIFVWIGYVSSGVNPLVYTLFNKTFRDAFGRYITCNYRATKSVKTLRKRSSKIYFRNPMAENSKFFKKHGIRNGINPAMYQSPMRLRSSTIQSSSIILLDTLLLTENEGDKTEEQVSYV

[6] = target: norepinephrine (NE) transporter (Homo sapiens, UniProt P23975); test: Equilibrium binding to transporters (FIG. 19); conditions: Norepinephrine TP (transporter)
norepinephrine (NE) transporter, sequence (P23975 whole entry): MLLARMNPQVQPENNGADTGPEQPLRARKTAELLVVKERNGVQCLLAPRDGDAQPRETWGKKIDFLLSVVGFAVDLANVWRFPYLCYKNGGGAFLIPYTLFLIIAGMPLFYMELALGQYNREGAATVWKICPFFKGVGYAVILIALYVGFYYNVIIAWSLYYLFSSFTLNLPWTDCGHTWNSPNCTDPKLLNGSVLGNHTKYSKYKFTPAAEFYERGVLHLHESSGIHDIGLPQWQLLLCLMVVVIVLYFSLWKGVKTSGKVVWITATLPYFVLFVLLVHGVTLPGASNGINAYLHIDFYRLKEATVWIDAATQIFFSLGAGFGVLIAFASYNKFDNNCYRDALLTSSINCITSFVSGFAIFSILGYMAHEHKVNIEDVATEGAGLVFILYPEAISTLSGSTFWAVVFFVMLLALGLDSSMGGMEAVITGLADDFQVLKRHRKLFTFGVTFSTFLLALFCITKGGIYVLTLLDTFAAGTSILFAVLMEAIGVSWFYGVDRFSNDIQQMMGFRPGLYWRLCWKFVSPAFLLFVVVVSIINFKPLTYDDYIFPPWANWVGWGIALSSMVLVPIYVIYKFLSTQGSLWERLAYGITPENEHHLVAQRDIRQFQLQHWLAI

[7] = target: T6, 5-HT1A receptor (Homo sapiens, UniProt P08908); test: G-protein-dependent signal transduction (functional agonism); type: cell-based
T6 construct: expressed in transfected cells
T6 sequence (P08908 1-422): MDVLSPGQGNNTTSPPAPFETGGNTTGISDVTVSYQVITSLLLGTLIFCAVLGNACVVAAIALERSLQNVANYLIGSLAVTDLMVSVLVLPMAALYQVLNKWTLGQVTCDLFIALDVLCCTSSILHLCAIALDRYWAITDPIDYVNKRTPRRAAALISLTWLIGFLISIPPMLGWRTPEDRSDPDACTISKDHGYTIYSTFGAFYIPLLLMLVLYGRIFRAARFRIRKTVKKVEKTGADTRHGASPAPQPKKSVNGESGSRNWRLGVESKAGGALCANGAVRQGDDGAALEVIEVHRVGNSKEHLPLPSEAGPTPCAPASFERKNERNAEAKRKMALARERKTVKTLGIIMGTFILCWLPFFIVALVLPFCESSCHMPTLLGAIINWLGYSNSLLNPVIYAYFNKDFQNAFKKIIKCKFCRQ
Experimental: Quantitation was based on peak area ratio of the analytes versus their stable labeled internal standards. A weighted (1/C2), linear regression was performed to determine the concentration of the analytes. All regressions and figures presented in this validation report were generated by MDS Sciex Analyst version 1.4.2 and Thermo Electron Corporation Watson LIMS software, version 7.0.0.01b. […] Select receptors were analyzed in ligand-induced intracellular calcium mobilization.

[8] = target: T7, adrenergic α1A receptor (Homo sapiens, UniProt P35348); test: G-protein-dependent signal transduction, intracellular Ca2+ mobilization; type: cell-based; conditions: for IC50: α1A, Ca2+ mobilization, read-out: IC50, functional antagonist
T7 construct: expressed in transfected cells
T7 sequence (P35348 1-466): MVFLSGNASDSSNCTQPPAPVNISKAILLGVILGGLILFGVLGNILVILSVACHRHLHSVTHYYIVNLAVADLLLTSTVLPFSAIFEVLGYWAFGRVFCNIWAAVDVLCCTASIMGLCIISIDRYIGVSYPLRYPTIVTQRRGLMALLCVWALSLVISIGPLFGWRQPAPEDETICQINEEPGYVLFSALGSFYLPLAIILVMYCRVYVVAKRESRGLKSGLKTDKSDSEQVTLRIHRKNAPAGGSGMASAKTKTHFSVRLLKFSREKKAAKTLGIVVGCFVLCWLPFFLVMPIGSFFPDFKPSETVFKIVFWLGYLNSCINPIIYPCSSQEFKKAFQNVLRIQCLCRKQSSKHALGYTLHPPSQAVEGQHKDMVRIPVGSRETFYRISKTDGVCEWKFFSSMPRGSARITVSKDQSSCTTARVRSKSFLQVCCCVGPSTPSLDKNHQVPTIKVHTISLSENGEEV

[9] = target: T1, 5-HT2A; test: G-protein-independent signal transduction, β-arrestin signaling; type: cell-based; conditions: for IC50: β-arrestin signaling, read-out: IC50, functional antagonist
[10] = target: T5, 5-HT2B; test: G-protein-dependent signal transduction, turnover of inositol triphosphate (IP); type: cell-based; conditions: read-out: IC50 (nM) (Antagonist)
[11] = target: T8, muscarinic M1 receptor (Homo sapiens, UniProt P11229); test: biochemical
T8 sequence (P11229 1-460): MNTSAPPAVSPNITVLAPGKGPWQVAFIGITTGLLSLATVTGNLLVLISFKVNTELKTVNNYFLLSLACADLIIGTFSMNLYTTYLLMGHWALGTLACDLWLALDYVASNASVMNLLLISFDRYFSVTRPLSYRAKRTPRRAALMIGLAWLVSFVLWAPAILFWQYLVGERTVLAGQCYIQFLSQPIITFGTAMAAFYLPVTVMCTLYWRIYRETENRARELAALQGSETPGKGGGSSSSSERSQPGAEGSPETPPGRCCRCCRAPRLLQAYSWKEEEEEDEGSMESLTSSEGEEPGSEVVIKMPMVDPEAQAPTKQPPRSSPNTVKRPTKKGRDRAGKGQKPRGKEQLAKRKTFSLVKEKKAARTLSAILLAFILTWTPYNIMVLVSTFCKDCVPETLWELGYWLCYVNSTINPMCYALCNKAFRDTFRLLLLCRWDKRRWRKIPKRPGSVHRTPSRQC

[12] = target: T8, muscarinic M1 receptor; test: G-protein-independent signal transduction, β-arrestin signaling; type: cell-based; design: expressed in transfected cells; conditions: for IC50: M1, β-arrestin signaling, read-out: IC50, functional antagonist
[13] = target: α2B (Homo sapiens, UniProt P18089); test: Functional antagonism, cAMP production
α2B, sequence (P18089 whole entry): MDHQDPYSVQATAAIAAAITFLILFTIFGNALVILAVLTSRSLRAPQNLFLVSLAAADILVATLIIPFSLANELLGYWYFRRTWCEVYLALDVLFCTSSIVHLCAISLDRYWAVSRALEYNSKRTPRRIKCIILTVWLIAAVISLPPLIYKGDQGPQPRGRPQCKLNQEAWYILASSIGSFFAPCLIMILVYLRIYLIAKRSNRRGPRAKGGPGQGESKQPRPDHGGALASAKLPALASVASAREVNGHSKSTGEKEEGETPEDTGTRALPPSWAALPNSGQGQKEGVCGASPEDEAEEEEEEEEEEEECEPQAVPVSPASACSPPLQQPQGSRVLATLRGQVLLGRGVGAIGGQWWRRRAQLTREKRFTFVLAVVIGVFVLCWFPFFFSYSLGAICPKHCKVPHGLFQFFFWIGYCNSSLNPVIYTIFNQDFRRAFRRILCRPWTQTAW

[14] = target: α1B (Homo sapiens, UniProt P35368); test: Functional antagonism, G-protein-dependent signal transduction (Table 69)
α1B, sequence (P35368 whole entry): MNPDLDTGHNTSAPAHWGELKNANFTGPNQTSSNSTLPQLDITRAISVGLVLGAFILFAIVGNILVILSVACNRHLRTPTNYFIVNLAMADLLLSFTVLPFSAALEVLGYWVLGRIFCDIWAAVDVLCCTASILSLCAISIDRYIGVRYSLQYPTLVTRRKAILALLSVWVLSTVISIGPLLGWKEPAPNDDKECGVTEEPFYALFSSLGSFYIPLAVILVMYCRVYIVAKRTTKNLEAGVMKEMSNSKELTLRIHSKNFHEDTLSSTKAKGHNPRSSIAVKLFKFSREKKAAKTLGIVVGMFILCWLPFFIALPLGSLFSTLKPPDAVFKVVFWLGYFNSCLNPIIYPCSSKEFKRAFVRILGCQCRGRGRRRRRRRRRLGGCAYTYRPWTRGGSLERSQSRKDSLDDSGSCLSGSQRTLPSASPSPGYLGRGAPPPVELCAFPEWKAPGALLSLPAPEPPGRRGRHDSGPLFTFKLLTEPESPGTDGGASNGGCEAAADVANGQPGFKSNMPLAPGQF

[15] = read-out: EC50, functional agonist

SMILES	Ki [1]	Ki [2]	Ki [3]	Ki [4]	Ki [5]	Ki [6]	EC50 [7, 15]	IC50 [8]	IC50 [9]	IC50 [10]	Ki [11]	IC50 [12]	IC50 [13]	IC50 [14]	also measured
CNCCC=C1c2ccccc2C=Cc2ccccc21 [norcyclobenzaprine, 3-(5H-dibenzo[a,d]cyclohepten-5-ylidene)-N-methyl-1-propanamine]	13 nM and 13.2 nM	43 nM	98 nM	140 nM	12 nM	2.6 nM	3200 nM	16 nM	181 nM	1400 nM	30 nM	266 nM	41 µM	790 nM	Hill plot ratio (Hill slope) [1]: 0.50; Hill plot ratio (Hill slope) ([2]; equilibrium binding): 1.40; Hill plot ratio (Hill slope) ([5]; equilibrium binding): 1.10; Four parameter Hill slope (or fit slope) ratio; Ca2+ signaling [7]: −0.79; IC50 ([7]; read-out: IC50 (nM) (Antagonist)): 5300 nM; Four parameter Hill slope (or fit slope) ratio; Ca2+ signaling ([8]; α-1A): 2.27; Four parameter Hill slope (or fit slope) ratio; β-arrestin signaling [9]: 1.11; Four parameter Hill slope (or fit slope) ratio; β-arrestin signaling ([12]; M1): 1.05
CN(C)CCC=C1c2ccccc2C=Cc2ccccc21 [cyclobenzaprine, 3-(5H-dibenzo[a,d]cyclohepten-5-ylidene)-N,N-dimethyl-1-propanamine]	5.2 nM and 5.1 nM	5.2 nM and 43 nM	34 nM	67 nM	15 nM	35 nM	5300 nM	4.9 nM	99 nM	760 nM	7.9 nM	81 nM	9.8 µM	530 nM	EC50 ([7]; read-out: EC50 (nM) (Agonist)): 3200 nM
